US8481011B2, “Use of polyunsaturated compounds as whitening agents” (Pierre Fabre Dermo-Cosmetique, priority 2005, dated 2013)

Experiments:
Assay type in all cases: cell-based
B16 murine melanocytes [1] = assay: MTT cellular respiration toxicity test on B16 melanocytes; conditions: for IC50: toxicity; for % MTT: concentration 10 μM, cell viability
Text: (§1) The objective of these tests is to measure the toxicity of the new retinoids on keratinocyte and melanocyte cells.
(§2) The method used is a cellular respiration test with the MTT (thiazolile blue) in order to assess cells that are still living.
(§3) The MTT test gives a cellular respiration index; this involves a substrate of dehydrogenases in general and dehydrogenase succinate in particular. The MTT, yellow, partially soluble in water, is reduced in a violet compound, insoluble in water, but soluble in organic solvents (DMSO).
(§4) Prepare a 12 mM solution (5 mg/ml) of MTT in water or the culture medium.
(§5) Dilute this solution to 1:10 in the supernatant fluid or suspension of cells (final MTT 1.2 mM or 0.5 mg/ml), then leave to incubate for 3 hours at 37° C.
(§6) Aspirate the supernatant fluid, the dissolve the violet crystals of formazan MTT in DMSO.
(§7) Read the optical density of the solution at 550 nm (dilute beforehand as required).
(§8) Calibration line: MTT formazan 0-200 μM.

[2] = tested on: BDV II murine keratinocytes; assay: MTT cellular respiration toxicity test on BDV II keratinocytes; conditions: for % MTT / IC50: BDV II murine keratinocytes; for % MTT: concentration 10 μM, cell viability; for IC50: toxicity; for toxicity ranking on BDV II keratinocytes: ranking in words, viability according to concentration
Text: as §1, §2, §3, §4, §5, §6, §7, §8

B16 murine melanocytes [3] = assay: Study of depigmenting activity (melanin dosage); conditions: at infratoxic doses, in words
Experimental: The objective of these tests is to measure the depigmenting activity of new retinoids according to their concentration.
The melanin is dosed according to the method described by S. Besson et al., Dermatology Archives. 133:331-336 (1997)′.
Digestion plug: 100 mM NaCl, to mm-Tri-HCl, 1% SDS, 50 mM EDTA, pH 8.
For 50 ml: 292 mg NaCl, 299 mg tris acid, 73 mg tris base, 931 mg EDTA disodium dehydrate, 500 mg SDS, adjust pH (≈5.5) to 8.0 with concentrated NaOH.
K proteinase 10 mg/ml in the digestion plug.
Prepare tubes containing synthetic melanin at concentrations of between 2.5 and 80 μg/ml in the DMSO.
For the cells, determine the protein concentration beforehand, centrifuge in 2 ml tubes and remove the supernatant.
In 2 ml tubes containing a cell remainder, add 300 μl of digestion buffer and 3 μl of K proteinase.
Incubate for 2 hours at 50° C., then a night at 37° C.
Top up the volume to 1 ml with water, then sound test.
Centrifuge for 10 minutes at 20,000 g, drain off all the supernatant (clear) then dissolve the dry melanin remainder in 500-1000 μl of DMSO.
Measure the absorbency at 375 nm and check the spectrum.

Row | SMILES | IC50 (B16 murine melanocytes [1]; Mus musculus, Melanocyte) | % MTT (B16 murine melanocytes [1]) | % MTT [2] | IC50 ([2]; Mus musculus, Keratinocyte) | toxicity ranking on BDV II keratinocytes [2] | depigmenting activity (melanin) (B16 murine melanocytes [3]) | IC50 (B16 murine melanocytes [1]) | IC50 [2]
1 | CC1=C(/C=C/C(C)=C/C=C/C(C)=C/C(=O)O)C(C)(C)CCC1O (centres unmarked) [Example 7, (2E,4E,6E,8E)-9-[3-(3-hydroxy)-2,6,6-trimethyl-cyclohex-1-enyl]-3,7-dimethyl-nona-2,4,6,8-tetraenoic acid] | 35 µM | 69% | 86% | > 100 µM | least toxic | – | – | –
2 | CC(=O)OC/C=C(C)/C=C/C=C(C)/C=C/C1=C(C)C(=O)CCC1(C)C [Example 11, (2E,4E,6E,8E)-9-[3-(3-oxo)-2,6,6-trimethyl-cyclohex-1-enyl]-3,7-dimethyl-nona-2,4,6,8-tetraenyl acetate] | 70 µM | 86% | 60% | 30 µM | – | – | – | –
3 | CC1=C(/C=C/C(C)=C/C=C/C(C)=C/C(=O)O)C(C)(C)CCC1 [RA, Retinoic acid, reference compound] | 10 µM | 50% | 40% | 3 µM | – | – | – | –
4 | CC1=C(/C=C/C(C)=C/C=C/C(C)=C/C(=O)OC(C)(C)C)C(C)(C)CCC1O (centres unmarked) [Example 4, tert-butylic ester of (2E,4E,6E,8E)-9-(3-hydroxy-2,6,6-trimethyl-cyclohex-1-enyl)-3,7-dimethyl-nona-2,4,6,8-tetraenoic acid] | 20 µM | 62% | 84% | 70 µM | – | – | – | –
5 | CC(=O)OC1CCC(C)(C)C(/C=C/C(C)=C/C=C/C(C)=C/C(=O)OC(C)(C)C)=C1C (centres unmarked) [Example 8, tert-butylic ester of (2E,4E,6E,8E)-9-[3-(3-acetoxy)-2,6,6-trimethyl-cyclohex-1-enyl]-3,7-dimethyl-nona-2,4,6,8-tetraenoic acid] | 60 µM | 82% | 82% | > 100 µM | least toxic | net depigmenting efficacy promotes | – | –
6 | COC(=O)/C=C(C)/C=C/C=C(C)/C=C/C1=C(C)C(=O)CCC1(C)C [Example 5, Methylic ester of (2E,4E,6E,8E)-9-[3-(3-oxo)-2,6,6-trimethyl-cyclohex-1-enyl]-3,7-dimethyl-nona-2,4,6,8-tetraenoic acid] | – | 86% | 59% | – | then examples 5 and 6 | net depigmenting efficacy promotes | 60 µM | 15 µM
7 | CC1=C(/C=C/C(C)=C/C=C/C(C)=C/C(=O)OC(C)(C)C)C(C)(C)CCC1=O [Example 3, tert-butylic ester of (2E,4E,6E,8E)-3,7-dimethyl-9-(2,6,6-trimethyl-3-oxo-cyclohex-1-enyl)-nona-2,4,6,8-tetraenoic acid] | 30 µM | 80% | 85% | 60 µM | – | net depigmenting efficacy promotes | – | –
8 | CC1=C(/C=C/C(C)=C/C=C/C(C)=C/C(=O)O)C(C)(C)CCC1=O [Example 405, 4-oxoretinoic acid] | – | 76% | 78% | – | – | – | > 100 µM | > 100 µM
